Data reported in PubChem BioAssay (NCI).
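96-well plates; 48 h exposure; 5 concentrations. Endpoints by linear interpolation between flanking doses. Not reached: highest tested concentration assigned. At the GI50, growth is halved. TGI: concentration producing complete growth inhibition.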

Tests used:
Experiment in all cases: inhibition of tumour cell growth, NCI panel, 48 h
786-0 renal = tested on: 786-0 renal
A498 renal = tested on: A498 renal
A549 NSCLC = tested on: A549 NSCLC
ACHN renal = tested on: ACHN renal
BT-549 breast = tested on: BT-549 breast
CCRF-CEM leukemia = tested on: CCRF-CEM leukemia
COLO 205 colon = tested on: COLO 205 colon
DU-145 prostate = tested on: DU-145 prostate
HCC-2998 colon = tested on: HCC-2998 colon
HCT-116 colon = tested on: HCT-116 colon
HCT-15 colon = tested on: HCT-15 colon
HL-60(TB) leukemia = tested on: HL-60(TB) leukemia
HOP-62 NSCLC = tested on: HOP-62 NSCLC
HOP-92 NSCLC = tested on: HOP-92 NSCLC
HS 578T breast = tested on: HS 578T breast
HT29 colon = tested on: HT29 colon
IGROV1 ovarian = tested on: IGROV1 ovarian
K-562 leukemia = tested on: K-562 leukemia
KM12 colon = tested on: KM12 colon
LOX IMVI melanoma = tested on: LOX IMVI melanoma
M14 melanoma = tested on: M14 melanoma
MALME-3M melanoma = tested on: MALME-3M melanoma
MCF7 breast = tested on: MCF7 breast
MDA-MB-231 breast = tested on: MDA-MB-231 breast
MDA-MB-435 = tested on: MDA-MB-435
MOLT-4 leukemia = tested on: MOLT-4 leukemia
NCI-H226 lung = tested on: NCI-H226 lung
NCI-H23 lung = tested on: NCI-H23 lung
NCI-H460 lung = tested on: NCI-H460 lung
NCI-H522 lung = tested on: NCI-H522 lung
NCI/ADR-RES ovarian = tested on: NCI/ADR-RES ovarian
OVCAR-3 ovarian = tested on: OVCAR-3 ovarian
OVCAR-4 ovarian = tested on: OVCAR-4 ovarian
OVCAR-5 ovarian = tested on: OVCAR-5 ovarian
OVCAR-8 ovarian = tested on: OVCAR-8 ovarian
PC-3 prostate = tested on: PC-3 prostate
RPMI-8226 leukemia = tested on: RPMI-8226 leukemia
RXF 393 renal = tested on: RXF 393 renal
SF-268 CNS = tested on: SF-268 CNS
SF-295 CNS = tested on: SF-295 CNS
SF-539 CNS = tested on: SF-539 CNS
SK-MEL-2 melanoma = tested on: SK-MEL-2 melanoma
SK-MEL-28 melanoma = tested on: SK-MEL-28 melanoma
SK-MEL-5 melanoma = tested on: SK-MEL-5 melanoma
SK-OV-3 ovarian = tested on: SK-OV-3 ovarian
SN12C renal = tested on: SN12C renal
SNB-19 CNS = tested on: SNB-19 CNS
SNB-75 CNS = tested on: SNB-75 CNS
SR leukemia = tested on: SR leukemia
SW-620 colon = tested on: SW-620 colon
T-47D breast = tested on: T-47D breast
TK-10 renal = tested on: TK-10 renal
U251 CNS = tested on: U251 CNS
UACC-257 melanoma = tested on: UACC-257 melanoma
UACC-62 melanoma = tested on: UACC-62 melanoma
UO-31 renal = tested on: UO-31 renal

CCCCCCCCCCCCCC(=S)NCCCC[C@H](NC(=O)OCc1ccccc1)C(=O)Nc1ccccc1 was tested, and the GI50 (786-0 renal) was 5.43 µM, the TGI (786-0 renal) was over 100 µM and the GI50 (A498 renal) was 3.75 µM. It also gave a TGI (A498 renal) of over 100 µM, a GI50 (A549 NSCLC) of 6.31 µM and a TGI (A549 NSCLC) of over 100 µM. It also gave a GI50 (ACHN renal) of 3.15 µM, a TGI (ACHN renal) of 19.7 µM and a GI50 (BT-549 breast) of 39.6 µM. The TGI (BT-549 breast) was over 100 µM, the GI50 (CCRF-CEM leukemia) was 4.04 µM and the TGI (CCRF-CEM leukemia) was over 100 µM. For the same compound, the GI50 (COLO 205 colon) was 3.87 µM, the TGI (COLO 205 colon) was 22.5 µM and the GI50 (DU-145 prostate) was 6.78 µM. For the same compound, the TGI (DU-145 prostate) was over 100 µM, the GI50 (HCC-2998 colon) was 5.69 µM and the TGI (HCC-2998 colon) was over 100 µM. The GI50 (HCT-116 colon) was 3.77 µM, the TGI (HCT-116 colon) was over 100 µM and the GI50 (HCT-15 colon) was 3.52 µM. It also gave a TGI (HCT-15 colon) of over 100 µM, a GI50 (HL-60(TB) leukemia) of 3.89 µM and a TGI (HL-60(TB) leukemia) of over 100 µM. The GI50 (HOP-62 NSCLC) was 16 µM, the TGI (HOP-62 NSCLC) was over 100 µM and the GI50 (HOP-92 NSCLC) was 2.3 µM. It also gave a TGI (HOP-92 NSCLC) of 8.25 µM, a GI50 (HS 578T breast) of 4.31 µM and a TGI (HS 578T breast) of over 100 µM. It also gave a GI50 (HT29 colon) of 5.25 µM, a TGI (HT29 colon) of over 100 µM and a GI50 (IGROV1 ovarian) of 5.87 µM. The TGI (IGROV1 ovarian) was over 100 µM, the GI50 (K-562 leukemia) was 4.21 µM and the TGI (K-562 leukemia) was over 100 µM. The GI50 (KM12 colon) was 4.33 µM, the TGI (KM12 colon) was over 100 µM and the GI50 (LOX IMVI melanoma) was 5.3 µM. It also gave a TGI (LOX IMVI melanoma) of over 100 µM, a GI50 (M14 melanoma) of 4.66 µM and a TGI (M14 melanoma) of over 100 µM. The GI50 (MALME-3M melanoma) was 7.41 µM, the TGI (MALME-3M melanoma) was over 100 µM and the GI50 (MCF7 breast) was 4.4 µM. The TGI (MCF7 breast) was over 100 µM, the GI50 (MDA-MB-231 breast) was 5.53 µM and the TGI (MDA-MB-231 breast) was over 100 µM. The GI50 (MDA-MB-435) was 5.3 µM, the TGI (MDA-MB-435) was over 100 µM and the GI50 (MOLT-4 leukemia) was 3.91 µM. It also gave a TGI (MOLT-4 leukemia) of over 100 µM, a GI50 (NCI-H226 lung) of 5.71 µM and a TGI (NCI-H226 lung) of over 100 µM. For the same compound, the GI50 (NCI-H23 lung) was 4.14 µM, the TGI (NCI-H23 lung) was over 100 µM and the GI50 (NCI-H460 lung) was 4.02 µM. For the same compound, the TGI (NCI-H460 lung) was over 100 µM, the GI50 (NCI-H522 lung) was 2.84 µM and the TGI (NCI-H522 lung) was 31.2 µM. It also gave a GI50 (NCI/ADR-RES ovarian) of 5.11 µM, a TGI (NCI/ADR-RES ovarian) of over 100 µM and a GI50 (OVCAR-3 ovarian) of 3.52 µM. The TGI (OVCAR-3 ovarian) was over 100 µM, the GI50 (OVCAR-4 ovarian) was 3.9 µM and the TGI (OVCAR-4 ovarian) was over 100 µM. It also gave a GI50 (OVCAR-5 ovarian) of 10.3 µM, a TGI (OVCAR-5 ovarian) of over 100 µM and a GI50 (OVCAR-8 ovarian) of 4.35 µM. It also gave a TGI (OVCAR-8 ovarian) of over 100 µM, a GI50 (PC-3 prostate) of 2.58 µM and a TGI (PC-3 prostate) of over 100 µM. The GI50 (RPMI-8226 leukemia) was 3.5 µM, the TGI (RPMI-8226 leukemia) was over 100 µM and the GI50 (RXF 393 renal) was 5.91 µM. For the same compound, the TGI (RXF 393 renal) was over 100 µM, the GI50 (SF-268 CNS) was 5.84 µM and the TGI (SF-268 CNS) was over 100 µM. The GI50 (SF-295 CNS) was 3.4 µM, the TGI (SF-295 CNS) was 72.1 µM and the GI50 (SF-539 CNS) was 10.7 µM. For the same compound, the TGI (SF-539 CNS) was over 100 µM, the GI50 (SK-MEL-2 melanoma) was 3.48 µM and the TGI (SK-MEL-2 melanoma) was 26.9 µM. It also gave a GI50 (SK-MEL-28 melanoma) of 7.99 µM, a TGI (SK-MEL-28 melanoma) of over 100 µM and a GI50 (SK-MEL-5 melanoma) of 8.39 µM. It also gave a TGI (SK-MEL-5 melanoma) of over 100 µM, a GI50 (SK-OV-3 ovarian) of 21.7 µM and a TGI (SK-OV-3 ovarian) of over 100 µM. For the same compound, the GI50 (SN12C renal) was 3.81 µM, the TGI (SN12C renal) was over 100 µM and the GI50 (SNB-19 CNS) was 4.27 µM. It also gave a TGI (SNB-19 CNS) of over 100 µM, a GI50 (SNB-75 CNS) of 3.85 µM and a TGI (SNB-75 CNS) of over 100 µM. The GI50 (SR leukemia) was 3.9 µM, the TGI (SR leukemia) was over 100 µM and the GI50 (SW-620 colon) was 4.12 µM. The TGI (SW-620 colon) was over 100 µM, the GI50 (T-47D breast) was 4.52 µM and the TGI (T-47D breast) was over 100 µM. The GI50 (TK-10 renal) was 4.4 µM, the TGI (TK-10 renal) was over 100 µM and the GI50 (U251 CNS) was 3.21 µM. It also gave a TGI (U251 CNS) of over 100 µM, a GI50 (UACC-257 melanoma) of 5.38 µM and a TGI (UACC-257 melanoma) of over 100 µM. For the same compound, the GI50 (UACC-62 melanoma) was 3.51 µM, the TGI (UACC-62 melanoma) was over 100 µM and the GI50 (UO-31 renal) was 2.39 µM. It also gave a TGI (UO-31 renal) of over 100 µM.
